Experimental data published in patent US20200405699A1, “TREATING SICKLE CELL DISEASE WITH A PYRUVATE KINASE R ACTIVATING COMPOUND” (FORMA Therapeutics, Inc., priority 2018, published 2020).

Assays:
PKR(G332S) = PKR(G332S) (Homo sapiens, UniProt P30613, G332S); assay: Luminescence Assay (Kinase Glo Plus), PKR G332S; format: biochemical; conditions: read-out: AC50 (PKRG332S)
Method: (§1) For each tested compound, the ability to activate PKR was determined using the following Luminescence Assay. The effect of phosphorylation of adenosine-5′-diphosphate (ADP) by PKR is determined by the Kinase Glo Plus Assay (Promega) in the presence or absence of FBP (D-fructose-1,6-diphosphate; BOC Sciences, CAS: 81028-91-3) as follows. Unless otherwise indicated, all reagents are purchased from Sigma-Aldrich. All reagents are prepared in buffer containing 50 mM Tris-HCl, 100 mM KCl, 5 mM MgCl2, and 0.01% Triton X100, 0.03% BSA, and 1 mM DTT. Enzyme and PEP (phosphoenolpyruvate) are added at 2× to all wells of an assay-ready plate containing serial dilutions of test compounds or DMSO vehicle. Final enzyme concentrations for PKR(wt), PKR(R510Q), and PKR(G332S) are 0.8 nM, 0.8 nM, and 10 nM respectively. Final PEP concentration is 100 μM. The Enzyme/PEP mixture is incubated with compounds for 30 minutes at RT before the assay is initiated with the addition of 2×ADP and KinaseGloPlus. Final concentration of ADP is 100 μM. […] For assays containing FBP, that reagent is added at 30 μM upon reaction initiation. Reactions are allowed to progress for 45 minutes at RT until luminescence is recorded by the BMG PHERAstar FS Multilabel Reader. The compound is tested in triplicate at concentrations ranging from 42.5 μM to 2.2 nM in 0.83% DMSO. AC50 measurements were obtained by the standard four parameter fit algorithm of ActivityBase XE Runner (max, min, slope and AC50). The AC50 value for a compound is the concentration (μM) at which the activity along the four parameter logistic curve fit is halfway between minimum and maximum activity.
(§2) As set forth in Tables 2 and 3 below and in FIG. 1, AC50 values are defined as follows: ≤0.1 μM (+++); >0.1 μM and ≤1.0 μM (++); >1.0 μM and ≤40 μM (+); >40 μM (0).

PKR-R510Q = PKR-R510Q (Homo sapiens, UniProt P30613, R510Q); assay: Luminescence Assay (Kinase Glo Plus), PKR R510Q; format: biochemical; conditions: read-out: AC50 (PKRR510Q)
Sequence of PKR-R510Q (P30613 whole entry R510Q): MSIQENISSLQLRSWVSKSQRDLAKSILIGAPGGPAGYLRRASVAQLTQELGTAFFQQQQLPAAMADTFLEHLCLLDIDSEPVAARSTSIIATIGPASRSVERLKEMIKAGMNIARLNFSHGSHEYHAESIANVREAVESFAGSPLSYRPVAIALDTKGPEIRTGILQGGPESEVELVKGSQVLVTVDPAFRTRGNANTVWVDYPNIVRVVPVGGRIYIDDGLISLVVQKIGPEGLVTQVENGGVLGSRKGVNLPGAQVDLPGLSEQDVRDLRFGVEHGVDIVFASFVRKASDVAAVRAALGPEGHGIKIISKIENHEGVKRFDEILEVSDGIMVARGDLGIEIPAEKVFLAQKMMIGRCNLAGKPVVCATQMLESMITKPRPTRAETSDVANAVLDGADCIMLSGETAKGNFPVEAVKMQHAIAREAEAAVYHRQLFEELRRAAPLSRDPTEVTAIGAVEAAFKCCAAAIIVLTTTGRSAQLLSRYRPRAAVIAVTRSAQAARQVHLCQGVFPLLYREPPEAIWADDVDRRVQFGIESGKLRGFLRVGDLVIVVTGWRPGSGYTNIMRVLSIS
Method: as §1, §2

Sequence of PKR(G332S) (P30613 whole entry G332S): as the sequence (P30613 whole entry R510Q) above, with G332S, Q510R counted along it

| Structure (SMILES) | AC50 (PKR(G332S)) [µM] | AC50 (PKR-R510Q) [µM] |
| --- | --- | --- |
| O=C([C@H](O)c1cccnc1)N1CC2=C(C1)CN(S(=O)(=O)c1cnc3c(c1)OCCO3)C2 [Compound 6] | 0.1 to 1 | 1 to 40 |
| O=C([C@H](CO)c1ccccc1)N1CC2=C(C1)CN(C(=O)[C@H](CO)c1ccccc1)C2 [Compound 7] | > 40 | > 40 |
| O=C(c1cn[nH]c1-c1ccccc1)N1CC2=C(C1)CN(S(=O)(=O)c1ccc3c(c1)OCCO3)C2 [Compound 8] | > 40 | > 40 |
